Experimental data: patent US10577363B2, “Substituted piperidine compounds” (EPIZYME, INC., priority 2014, dated 2020)

biological target: SMYD3 (Homo sapiens (Human), UniProt Q9H7B4); experiment: SMYD3 biochemical assay (SPA, 3H-SAM methylation of MEKK2 protein substrate); conditions: read-out: SMYD3 Biochem IC50 (μM)*
Summary of the method: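 Enzyme: untagged full-length human SMYD3 from E. coli; substrate GST-tagged MEKK2 from insect cells. Buffer 25 mM Tris-Cl pH 8.0, 1 mM TCEP, 0.005% BSG/Tween 20. 30 min compound–enzyme preincubation at RT; 3H-SAM/MEKK2 start; stop with cold SAM (100 uM final); SPA readout in cpm.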

| Compound | IC50 |
| --- | --- |
| C[C@@H]1CC(NC(=O)c2cc(C3CC3)on2)CCN1C(=O)[C@H]1CCC[C@H](N)C1 (stereo partly drawn) [compound 174, N-((2R)-1-((1S,3S)-3-aminocyclohexane-1-carbonyl)-2-methylpiperidin-4-yl)-5-cyclopropylisoxazole-3-carboxamide] | 0.728 µM |
| C[C@H]1CC(NC(=O)c2cc(C3CC3)on2)CCN1C(=O)CCC1CCNC1 (stereo partly drawn) [compound 176, 5-cyclopropyl-N-((2S)-2-methyl-1-(3-(pyrrolidin-3-yl)propanoyl)piperidin-4-yl)isoxazole-3-carboxamide] | 0.624 µM |
| C[C@H]1CC(NC(=O)c2cc(C3CC3)on2)CCN1C(=O)C1CNCC(O)C1 (stereo partly drawn) [compound 177, 5-cyclopropyl-N-((2S)-1-(5-hydroxypiperidine-3-carbonyl)-2-methylpiperidin-4-yl)isoxazole-3-carboxamide] | > 10 µM |
| C[C@H]1CC(NC(=O)c2cc(C3CC3)on2)CCN1C(=O)C1CC2(CCNC2)C1 (stereo partly drawn) [compound 178, 5-cyclopropyl-N-((2S)-2-methyl-1-(6-azaspiro[3.4]octane-2-carbonyl)piperidin-4-yl)isoxazole-3-carboxamide] | 2.02 µM |
| C[C@H]1CC(NC(=O)c2cc(C3CC3)on2)CCN1C(=O)C1CC12CCNCC2 (stereo partly drawn) [compound 179, 5-cyclopropyl-N-((2S)-2-methyl-1-(6-azaspiro[2.5]octane-1-carbonyl)piperidin-4-yl)isoxazole-3-carboxamide] | 1.42 µM |
| C[C@@H]1CC(NC(=O)c2cc(C3CC3)on2)CCN1C(=O)CCC1CCNC1 (stereo partly drawn) [compound 180, 5-cyclopropyl-N-((2R)-2-methyl-1-(3-(pyrrolidin-3-yl)propanoyl)piperidin-4-yl)isoxazole-3-carboxamide] | 0.953 µM |
| N[C@H]1CC[C@@H](C(=O)N2CCC(NC(=O)c3cc(C4CC4)on3)CC2)C1 [compound 182, N-(1-((1R,3S)-3-aminocyclopentane-1-carbonyl)piperidin-4-yl)-5-cyclopropylisoxazole-3-carboxamide] | 4.79 µM |
| C[C@@H]1C[C@@H](NC(=O)c2cc(C3CC3)on2)CCN1C(=O)CCCCN [compound 184, N-((2R,4S)-1-(5-aminopentanoyl)-2-methylpiperidin-4-yl)-5-cyclopropylisoxazole-3-carboxamide] | 2.67 µM |
| C[C@@H]1C[C@@H](NC(=O)c2cc(C3CC3)on2)CCN1S(=O)(=O)Cc1ccccc1 [compound 185, N-((2R,4S)-1-(benzylsulfonyl)-2-methylpiperidin-4-yl)-5-cyclopropylisoxazole-3-carboxamide] | 4.31 µM |
| C[C@@H]1C[C@@H](NC(=O)c2cc(C3CC3)on2)CCN1S(=O)(=O)CC(F)(F)F [compound 186, 5-cyclopropyl-N-((2R,4S)-2-methyl-1-((2,2,2-trifluoroethyl)sulfonyl)piperidin-4-yl)isoxazole-3-carboxamide] | > 10 µM |
| C[C@H]1C[C@H](NC(=O)c2cc(C3CC3)on2)CCN1S(=O)(=O)CCCN [compound 188, N-((2S,4R)-1-((3-aminopropyl)sulfonyl)-2-methylpiperidin-4-yl)-5-cyclopropylisoxazole-3-carboxamide] | 0.0723 µM |
| CC[C@@H]1CN(C(=O)[C@H]2CC[C@H](N)CC2)CC[C@@H]1NC(=O)c1cc(C2CC2)on1 [compound 190, N-((3R,4S)-1-((1r,4R)-4-aminocyclohexane-1-carbonyl)-3-ethylpiperidin-4-yl)-5-cyclopropylisoxazole-3-carboxamide] | 0.352 µM |
| N[C@H]1CC[C@H](C(=O)N2C3CCC2CC(NC(=O)c2cc(C4CC4)on2)C3)CC1 (stereo partly drawn) [compound 191, N-(8-((1r,4r)-4-aminocyclohexane-1-carbonyl)-8-azabicyclo[3.2.1]octan-3-yl)-5-cyclopropylisoxazole-3-carboxamide] | > 10 µM |
| CCOC(=O)[C@@H]1CC(NC(=O)c2cc(C3CC3)on2)CCN1C(=O)[C@H]1CC[C@H](N)CC1 (stereo partly drawn) [compound 192, ethyl (2S)-1-((1r,4S)-4-aminocyclohexane-1-carbonyl)-4-(5-cyclopropylisoxazole-3-carboxamido)piperidine-2-carboxylate] | 7.08 µM |
| C[C@@H]1CN(C(=O)CCCN)CC[C@@H]1NC(=O)c1cc(C2CC2)on1 [compound 193, N-((3R,4S)-1-(4-aminobutanoyl)-3-methylpiperidin-4-yl)-5-cyclopropylisoxazole-3-carboxamide] | 2.87 µM |
| C[C@H]1CN(C(=O)CCCN)CC[C@H]1NC(=O)c1cc(C2CC2)on1 [compound 194, N-((3S,4R)-1-(4-aminobutanoyl)-3-methylpiperidin-4-yl)-5-cyclopropylisoxazole-3-carboxamide] | 1.37 µM |
| C[C@@H]1CN(C(=O)CCCN)CC[C@H]1NC(=O)c1cc(C2CC2)on1 [compound 195, N-((3R,4R)-1-(4-aminobutanoyl)-3-methylpiperidin-4-yl)-5-cyclopropylisoxazole-3-carboxamide] | > 10 µM |
| C[C@H]1CN(C(=O)CCCN)CC[C@@H]1NC(=O)c1cc(C2CC2)on1 [compound 196, N-((3S,4S)-1-(4-aminobutanoyl)-3-methylpiperidin-4-yl)-5-cyclopropylisoxazole-3-carboxamide] | 6.91 µM |

| Compound | IC50 |
| --- | --- |
| NCCCC(=O)N1CCC(NC(=O)c2cc(C3CC3)on2)C(F)(F)C1 (stereo not drawn) [compound 197, N-(1-(4-aminobutanoyl)-3,3-difluoropiperidin-4-yl)-5-cyclopropylisoxazole-3-carboxamide] | > 10 µM |
| NCCCC(=O)N1CCC(NC(=O)c2cc(C3CC3)on2)C2(CC2)C1 (stereo not drawn) [compound 198, N-(5-(4-aminobutanoyl)-5-azaspiro[2.5]octan-8-yl)-5-cyclopropylisoxazole-3-carboxamide] | 0.83 µM |
| NCCCC(=O)N1C2CCC1CC(NC(=O)c1cc(C3CC3)on1)C2 (stereo not drawn) [compound 199, N-(8-(4-aminobutanoyl)-8-azabicyclo[3.2.1]octan-3-yl)-5-cyclopropylisoxazole-3-carboxamide] | 0.678 µM |
| C[C@H]1CC(NC(=O)c2cc(C3CC3)on2)CCN1C(=O)N1CCC(N)CC1 (stereo partly drawn) [compound 201, N-((2S)-1-(4-aminopiperidine-1-carbonyl)-2-methylpiperidin-4-yl)-5-cyclopropylisoxazole-3-carboxamide] | 2.23 µM |
| CC1C(NC(=O)c2cc(C3CC3)on2)CCN(C(=O)[C@H]2CC[C@H](N)CC2)C1C (stereo partly drawn) [compound 203, N-(1-((1r,4r)-4-aminocyclohexane-1-carbonyl)-2,3-dimethylpiperidin-4-yl)-5-cyclopropylisoxazole-3-carboxamide] | 0.379 µM |
| C[C@H]1CC(NC(=O)c2cc(C3CC3)on2)CCN1C(=O)CC1(CN)CCC1 (stereo partly drawn) [compound 204, N-((2S)-1-(2-(1-(aminomethyl)cyclobutyl)acetyl)-2-methylpiperidin-4-yl)-5-cyclopropylisoxazole-3-carboxamide] | 4.68 µM |
| C[C@@H]1CC(NC(=O)c2cc(C3CC3)on2)CCN1C(=O)CC1(CN)CCC1 (stereo partly drawn) [compound 205, N-((2R)-1-(2-(1-(aminomethyl)cyclobutyl)acetyl)-2-methylpiperidin-4-yl)-5-cyclopropylisoxazole-3-carboxamide] | 1.99 µM |
| CC1CNCCC1CC(=O)N1CCC(NC(=O)c2cc(C3CC3)on2)C[C@@H]1C (stereo partly drawn) [compound 206, 5-cyclopropyl-N-((2S)-2-methyl-1-(2-(3-methylpiperidin-4-yl)acetyl)piperidin-4-yl)isoxazole-3-carboxamide] | 1.59 µM |
| C[C@H]1CC(NC(=O)c2cc(C3CC3)on2)CCN1C(=O)C1(F)CCNCC1 (stereo partly drawn) [compound 207, 5-cyclopropyl-N-((2S)-1-(4-fluoropiperidine-4-carbonyl)-2-methylpiperidin-4-yl)isoxazole-3-carboxamide] | 2.6 µM |
| C[C@@H]1C[C@@H](NC(=O)c2cc(C3CC3)on2)CCN1C(=O)CCCN [compound 208, N-((2R,4S)-1-(4-aminobutanoyl)-2-methylpiperidin-4-yl)-5-cyclopropylisoxazole-3-carboxamide] | 3.82 µM |
| C[C@@H]1C[C@@H](NC(=O)c2cc(C3CC3)on2)CCN1S(=O)(=O)CCCN [compound 209, N-((2R,4S)-1-((3-aminopropyl)sulfonyl)-2-methylpiperidin-4-yl)-5-cyclopropylisoxazole-3-carboxamide] | 0.1 µM |
| NCCCC(=O)N1C2CCCC1CC(NC(=O)c1cc(C3CC3)on1)C2 (stereo not drawn) [compound 211, N-(9-(4-aminobutanoyl)-9-azabicyclo[3.3.1]nonan-3-yl)-5-cyclopropylisoxazole-3-carboxamide] | 5.85 µM |
| C[C@@H]1C[C@H](NC(=O)c2cc(C3CC3)on2)CCN1C(=O)CCCCN [compound 212, N-((2R,4R)-1-(5-aminopentanoyl)-2-methylpiperidin-4-yl)-5-cyclopropylisoxazole-3-carboxamide] | 0.838 µM |
| C[C@@H]1C[C@@H](NC(=O)c2cc(C3CC3)on2)CCN1S(=O)(=O)C1CC1 [compound 213, 5-cyclopropyl-N-((2R,4S)-1-(cyclopropylsulfonyl)-2-methylpiperidin-4-yl)isoxazole-3-carboxamide] | > 10 µM |
| CNS(=O)(=O)N1CC[C@H](NC(=O)c2cc(C3CC3)on2)C[C@H]1C [compound 214, 5-cyclopropyl-N-((2R,4S)-2-methyl-1-(N-methylsulfamoyl)piperidin-4-yl)isoxazole-3-carboxamide] | > 10 µM |
| COCCS(=O)(=O)N1CC[C@H](NC(=O)c2cc(C3CC3)on2)C[C@H]1C [compound 215, 5-cyclopropyl-N-((2R,4S)-1-((2-methoxyethyl)sulfonyl)-2-methylpiperidin-4-yl)isoxazole-3-carboxamide] | > 10 µM |
| C[C@@H]1C[C@H](NC(=O)c2cc(C3CC3)on2)CCN1S(=O)(=O)C1CC1 [compound 216, 5-cyclopropyl-N-((2R,4R)-1-(cyclopropylsulfonyl)-2-methylpiperidin-4-yl)isoxazole-3-carboxamide] | > 10 µM |
| CNS(=O)(=O)N1CC[C@@H](NC(=O)c2cc(C3CC3)on2)C[C@H]1C [compound 217, 5-cyclopropyl-N-((2R,4R)-2-methyl-1-(N-methylsulfamoyl)piperidin-4-yl)isoxazole-3-carboxamide] | 6.76 µM |
